Entries after “also recorded” stand apart in the source; their conditions may differ. Like-named read-outs stand apart in the source and are kept apart here.
Assay: Phase I trial of oral PCLX-001: plasma pharmacokinetics, noncompartmental analysis (Phoenix WinNonlin 8.3)
Assay type: in vivo, human
Settings: for half-life / Tmax / AUC(0-inf) / Cmax / AUC(0-t): human, plasma, po; for half-life: read-out: Half-life (converted); for Tmax: read-out: Tmax; for AUC(0-t): read-out: AUClast or AUCtau
Source text: The clinical trial is entitled “Phase I Trial of PCLX-001 in B-cell Non-Hodgkin Lymphoma and Advanced Solid Malignancies” and registered at clinicaltrials.gov as NCT04836195. It is a phase I dose-escalation study of oral PCLX-001, conducted in a multicenter, non-randomized, open-label, non-controlled design. The study is comprised of two parts: Part A (single-agent dose escalation) and Part B (single-agent expansion cohorts).
Patients are to receive daily oral PCLX-001 on 28-day cycles, beginning with a starting dose of 20 mg.
[…] After dosing, the blood samples (volumes 3 mL) were serially collected into heparinized tubes from a right forearm butterfly cannula. All blood fluid specimens were frozen and later assayed using a validated UHPLC-MS detection method.
Noncompartmental pharmacokinetic analysis was performed using Phoenix WinNonlin 8.3 using trapezoidal rule and linear up log down methodology. WinNonlin was allowed to pick optimal terminal phases.
Nonparametric superposition was performed using Phoenix WinNonlin Nonparametric Superposition to predict steady state data based upon Day 1 data for each patient. It utilized the 8- and 24-hour time points for estimation of terminal phase for the purposes of this exercise. We simulated 20 mg daily oral dosing and simulations were conducted out to steady state. Results are show in FIGS. 5, 6, and 7.
In the non-compartmental analysis, Phoenix WinNonlin 8.3 trapezoidal rule was used, with linear up log down method. This allowed WinNonlin to pick optimal terminal phase (WinNonlin will accept Rsq adjusted to >0.7). Additional analysis to assess adequate fie included visual inspection of data, and AUCextrap should be <15%.
Phoenix WinNonlin 8.3 trapezoidal rule. Used linear up log down method. Allowed WinNonlin to pick optimal terminal phase (WinNonlin will accept Rsq adjusted >0.7).
Other analysis to assess adequate fit. Visual inspection of data. AUCextrap should be <15%.

[1] = 20 mg, Table 1A, Patient 115-002-004 (Patient 3), Day 15, 20 mg oral daily
[2] = 20 mg, Table 6, Patient 115-002-001, Day 1, 20 mg QD oral, Pantoprazole No
[3] = 20 mg, Table 6, Patient 115-002-001, Day 15, 20 mg QD oral, Pantoprazole No
[4] = 20 mg, Table 6, Patient 115-002-002, Day 1, 20 mg QD oral, Pantoprazole No
[5] = 20 mg, Table 6, Patient 115-002-002, Day 15, 20 mg QD oral, Pantoprazole No
[6] = 20 mg, Table 6, Patient 115-002-004, Day 1, 20 mg QD oral, Pantoprazole No
[7] = 20 mg, Table 6, Patient 115-002-004, Day 15, 20 mg QD oral, Pantoprazole No
[8] = 40 mg, Table 7, Patient 115-002-005, Day 1, 40 mg QD oral, Pantoprazole Yes
[9] = 40 mg, Table 7, Patient 115-002-005, Day 15, 40 mg QD oral, Pantoprazole Yes
[10] = 40 mg, Table 7, Patient 115-002-006, Day 1, 40 mg QD oral, Pantoprazole Yes
[11] = 40 mg, Table 7, Patient 115-002-006, Day 15, 40 mg QD oral, Pantoprazole Yes
[12] = 40 mg, Table 7, Patient 115-009-001, Day 1, 40 mg QD oral, Pantoprazole No
[13] = 40 mg, Table 7, Patient 115-009-001, Day 15, 40 mg QD oral, Pantoprazole No
[14] = 70 mg, Table 8, Patient 115-002-007, Day 1, 70 mg QD oral, Pantoprazole Yes
[15] = 70 mg, Table 8, Patient 115-002-007, Day 15, 70 mg QD oral, Pantoprazole Yes
[16] = 70 mg, Table 8, Patient 115-002-008, Day 1, 70 mg QD oral, Pantoprazole Yes
[17] = 70 mg, Table 8, Patient 115-002-008, Day 15, 70 mg QD oral, Pantoprazole Yes
[18] = 70 mg, Table 8, Patient 115-024-001, Day 1, 70 mg QD oral, Pantoprazole No
[19] = 70 mg, Table 8, Patient 115-024-001, Day 15, 70 mg QD oral, Pantoprazole No
[20] = 100 mg, Table 9, Patient 115-002-009, Day 1, 100 mg QD oral, Pantoprazole No
[21] = 100 mg, Table 9, Patient 115-002-010, Day 1, 100 mg QD oral, Pantoprazole No
[22] = 100 mg, Table 9, Patient 115-002-011, Day 1, 100 mg QD oral, Pantoprazole No
[23] = 100 mg, Table 9, Patient 115-002-011, Day 15, 100 mg QD oral, Pantoprazole No
[24] = 100 mg, Table 9, Patient 115-002-012, Day 1, 100 mg QD oral, Pantoprazole No
[25] = 100 mg, Table 9, Patient 115-002-012, Day 15, 100 mg QD oral, Pantoprazole No
[26] = 140 mg, Table 10, Patient 115-002-006, Day 1, Dose 140 mg QD oral, Concomitant Pantoprazole No
[27] = 140 mg, Table 10, Patient 115-002-006, Day 15, Dose 140 mg QD oral, Concomitant Pantoprazole No
[28] = 140 mg, Table 10, Patient 115-024-005, Day 1, Dose 140 mg QD oral, Concomitant Pantoprazole Yes
[29] = 140 mg, Table 10, Patient 115-024-005, Day 15, Dose 140 mg QD oral, Concomitant Pantoprazole Yes
[30] = 140 mg, Table 10, Patient 115-024-013, Day 1, Dose 140 mg QD oral, Concomitant Pantoprazole Yes
[31] = 140 mg, Table 10, Patient 115-024-013, Day 15, Dose 140 mg QD oral, Concomitant Pantoprazole Yes

Cc1c(NS(=O)(=O)c2c(Cl)cc(-c3ccnc(N4CCNCC4)c3)cc2Cl)c(CC(C)C)nn1C [PCLX-001, 2,6-dichloro-N-(3-isobutyl-1,5-dimethyl-1H-pyrazol-4-yl)-4-(2-(piperazin-1-yl)pyridin-4-yl)benzene sulfonamide]
half-life [1]: 6.86 h
Tmax [1]: 0.5 h
AUC(0-inf) [2]: 2030 ng·h/mL
Cmax [2]: 360 ng/mL
AUC(0-t) [2]: 1720 ng·h/mL
half-life [2]: 8.34 h
Tmax [2]: 1 h
AUC(0-inf) [3]: 3600 ng·h/mL
Cmax [3]: 479 ng/mL
AUC(0-t) [3]: 2750 ng·h/mL
half-life [3]: 10.9 h
Tmax [3]: 1 h
Cmax [4]: 142 ng/mL
AUC(0-t) [4]: 1300 ng·h/mL
Tmax [4]: 4 h
AUC(0-inf) [5]: 2440 ng·h/mL
Cmax [5]: 243 ng/mL
AUC(0-t) [5]: 2010 ng·h/mL
half-life [5]: 9.42 h
Tmax [5]: 2 h
AUC(0-inf) [6]: 1880 ng·h/mL
Cmax [6]: 326 ng/mL
AUC(0-t) [6]: 1780 ng·h/mL
half-life [6]: 5.51 h
Tmax [6]: 2 h
AUC(0-inf) [7]: 2110 ng·h/mL
Cmax [7]: 356 ng/mL
AUC(0-t) [7]: 1900 ng·h/mL
half-life [7]: 6.47 h
Tmax [7]: 0.5 h
AUC(0-inf) [8]: 4900 ng·h/mL
Cmax [8]: 868 ng/mL
AUC(0-t) [8]: 4430 ng·h/mL
half-life [8]: 7.5 h
Tmax [8]: 0.5 h
AUC(0-inf) [9]: 7060 ng·h/mL
Cmax [9]: 802 ng/mL
AUC(0-t) [9]: 6680 ng·h/mL
half-life [9]: 5.54 h
Tmax [9]: 2 h
Cmax [10]: 7.13 ng/mL
AUC(0-t) [10]: 79.6 ng·h/mL
Tmax [10]: 4 h
Cmax [11]: 40.8 ng/mL
AUC(0-t) [11]: 175 ng·h/mL
Tmax [11]: 4 h
AUC(0-inf) [12]: 12600 ng·h/mL
Cmax [12]: 1670 ng/mL
AUC(0-t) [12]: 10100 ng·h/mL
half-life [12]: 10.8 h
Tmax [12]: 1 h
AUC(0-inf) [13]: 18300 ng·h/mL
Cmax [13]: 1480 ng/mL
AUC(0-t) [13]: 13700 ng·h/mL
half-life [13]: 11.9 h
Tmax [13]: 2 h
Cmax [14]: 158 ng/mL
AUC(0-t) [14]: 1960 ng·h/mL
Tmax [14]: 4 h
Cmax [15]: 602 ng/mL
AUC(0-t) [15]: 8130 ng·h/mL
Tmax [15]: 4 h
Cmax [16]: 408 ng/mL
AUC(0-t) [16]: 4550 ng·h/mL
Tmax [16]: 8 h
Cmax [17]: 170 ng/mL
AUC(0-t) [17]: 3380 ng·h/mL
Tmax [17]: 8 h
Cmax [18]: 1430 ng/mL
AUC(0-t) [18]: 9400 ng·h/mL
half-life [18]: 9.44 h
Tmax [18]: 1 h
Cmax [19]: 629 ng/mL
AUC(0-t) [19]: 7300 ng·h/mL
Tmax [19]: 4 h
AUC(0-inf) [20]: 15400 ng·h/mL
Cmax [20]: 1740 ng/mL
AUC(0-t) [20]: 14800 ng·h/mL
half-life [20]: 5.02 h
Tmax [20]: 2 h
AUC(0-inf) [21]: 22400 ng·h/mL
Cmax [21]: 2490 ng/mL
AUC(0-t) [21]: 20000 ng·h/mL
half-life [21]: 7.17 h
Tmax [21]: 2 h
AUC(0-inf) [22]: 16200 ng·h/mL
Cmax [22]: 1650 ng/mL
AUC(0-t) [22]: 13200 ng·h/mL
half-life [22]: 9.6 h
Tmax [22]: 2 h
Cmax [23]: 1160 ng/mL
AUC(0-t) [23]: 17900 ng·h/mL
Tmax [23]: 4 h
Cmax [24]: 1210 ng/mL
AUC(0-t) [24]: 12600 ng·h/mL
Tmax [24]: 4 h
AUC(0-inf) [25]: 19400 ng·h/mL
Cmax [25]: 1530 ng/mL
AUC(0-t) [25]: 17000 ng·h/mL
half-life [25]: 7.56 h
Tmax [25]: 2 h
AUC(0-inf) [26]: 24200 ng·h/mL
Cmax [26]: 2710 ng/mL
AUC(0-t) [26]: 21200 ng·h/mL
half-life [26]: 7.91 h
Tmax [26]: 0.5 h
AUC(0-inf) [27]: 41900 ng·h/mL
Cmax [27]: 2200 ng/mL
AUC(0-t) [27]: 26000 ng·h/mL
half-life [27]: 16.4 h
Tmax [27]: 2 h
AUC(0-inf) [28]: 4160 ng·h/mL
Cmax [28]: 406 ng/mL
AUC(0-t) [28]: 3630 ng·h/mL
half-life [28]: 7.56 h
Tmax [28]: 1 h
AUC(0-inf) [29]: 7180 ng·h/mL
Cmax [29]: 295 ng/mL
AUC(0-t) [29]: 4320 ng·h/mL
half-life [29]: 17.4 h
Tmax [29]: 2 h
AUC(0-inf) [30]: 11500 ng·h/mL
Cmax [30]: 2190 ng/mL
AUC(0-t) [30]: 10900 ng·h/mL
half-life [30]: 5.86 h
Tmax [30]: 1 h
AUC(0-inf) [31]: 14300 ng·h/mL
Cmax [31]: 1510 ng/mL
AUC(0-t) [31]: 11000 ng·h/mL
half-life [31]: 10.1 h
Tmax [31]: 1 h
peak plasma concentrations versus concentrations active in cultured cells (patients 1, 2 and 3, 20 mg oral daily): exceeded those needed to suppress cultured human cancer cell growth
trough plasma concentrations (immediately prior to dosing on day 2, 15, and 22) (patients 1, 2 and 3, 20 mg oral daily, versus allometric scaling from mice, rats, dogs): higher than anticipated
effect of pantoprazole on systemic exposure / oral absorption (patients taking pantoprazole vs not): lower in patients taking pantoprazole; also recorded: reduces oral absorption

From patent publication US20250161299A1, “ORAL PCLX-001 IN THE TREATMENT OF HUMAN CANCER” (PACYLEX PHARMACEUTICALS INC., priority 2022, published 2025)
